In PubChem BioAssay (NCI):
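Cultured in 96-well plates, cells were exposed to test compound for 48 hours across five concentrations. Here, GI50 denotes the concentration required for 50% inhibition of growth. TGI marks complete inhibition of growth.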

Columns and labels:
Assay in all cases: inhibition of tumour cell growth, NCI panel, 48 h
IGROV1 ovarian = test system: IGROV1 ovarian
EKVX NSCLC = test system: EKVX NSCLC
NCI-H522 lung = test system: NCI-H522 lung
SK-OV-3 ovarian = test system: SK-OV-3 ovarian
786-0 renal = test system: 786-0 renal
SF-268 CNS = test system: SF-268 CNS
UACC-257 melanoma = test system: UACC-257 melanoma
CCRF-CEM leukemia = test system: CCRF-CEM leukemia
TK-10 renal = test system: TK-10 renal
UO-31 renal = test system: UO-31 renal

Row | SMILES | GI50 (IGROV1 ovarian) [µM] | TGI (IGROV1 ovarian) [µM] | GI50 (EKVX NSCLC) [µM] | TGI (EKVX NSCLC) [µM] | GI50 (NCI-H522 lung) [µM] | TGI (NCI-H522 lung) [µM] | GI50 (SK-OV-3 ovarian) [µM] | TGI (SK-OV-3 ovarian) [µM] | GI50 (786-0 renal) [µM] | TGI (786-0 renal) [µM] | GI50 (SF-268 CNS) [µM] | TGI (SF-268 CNS) [µM] | GI50 (UACC-257 melanoma) [µM] | TGI (UACC-257 melanoma) [µM] | GI50 (CCRF-CEM leukemia) [µM] | TGI (CCRF-CEM leukemia) [µM] | GI50 (TK-10 renal) [µM] | TGI (TK-10 renal) [µM] | TGI (UO-31 renal) [µM] | GI50 (UO-31 renal) [µM]
1 | C#C[C@@]1(O)[C@@H](CO)O[C@@H](n2ccc3c(N)ncnc32)[C@@H]1O | 1.43 | 5.85 | 1.52 | 5.43 | 0.37 | 3.82 | 1.07 | 5.24 | 1.63 | 6.15 | 2.33 | 26.1 | 2.31 | 7.06 | 2.3 | > 100 | 2.65 | 9.48 | – | –
2 | Nc1ccc2c(c1)CC1c3ccccc3C(C2)c2ccccc21 | – | > 100 | – | – | – | > 100 | – | > 100 | – | > 100 | – | > 100 | – | > 100 | – | > 100 | – | > 100 | > 100 | –
3 | N#CCN1CCOCCOCCN(CC#N)CCOCCOCC1 | – | > 100 | – | > 100 | – | – | – | – | – | > 100 | – | > 100 | – | > 100 | – | > 100 | – | > 100 | > 100 | –
4 | CCOC(=O)[C@H]1Nc2ccc(Cl)cc2[C@H]2OCC[C@@H]12 | – | > 100 | – | > 100 | – | > 100 | – | > 100 | – | > 100 | – | > 100 | – | > 100 | – | > 100 | – | > 100 | – | –
5 | Cc1c(C(=O)/C=C/c2ccccc2Cl)[n+](=O)c2ccccc2n1[O-] | – | 31.6 | – | 31.1 | – | 23.3 | – | 35.7 | – | 25.3 | – | – | – | 27.2 | – | – | – | – | 33.2 | –
6 | O=Cc1ccc(Oc2c3ccccc3nc3occc23)cc1 | 24.6 | > 100 | – | – | 49.5 | > 100 | 21.6 | 57 | 18.7 | 54.5 | 15.5 | 40.8 | 12.2 | 30.1 | 13.8 | 35.4 | 3.83 | 21 | > 100 | 26.4
7 | O=C1c2cc3c(cc2[C@@H]2[C@H]1c1ccc([N+](=O)[O-])cc1C(=O)N2CCCCl)OCO3 | < 0.01 | > 100 | < 0.01 | > 100 | < 0.01 | 9.64 | < 0.027 | – | < 0.01 | < 0.0135 | < 0.01 | – | < 0.01 | – | – | – | 0.0868 | – | – | < 0.01
8 | CCN(C(=O)CCl)C(C)(C)C(SSSC(c1ccc(Cl)cc1)C(C)(C)N(CC)C(=O)CCl)c1ccc(Cl)cc1 (stereo not drawn) | 10.9 | 31.5 | – | – | 2.06 | 3.87 | 15.3 | 31.5 | 13.6 | 31.2 | 10.5 | 23.9 | 1.82 | 3.48 | 2.45 | 5.93 | 2.5 | 7.92 | 15.3 | 3.88
9 | COc1ccc(/C=C/C(=O)c2ccc3cc(OC)c(OC)cc3c2)cc1OC | 4.72 | 63.4 | – | – | 2.48 | 7.99 | 4.41 | 83.5 | 4.19 | 27.9 | 4.45 | 22.6 | 6.14 | 22.6 | 3.03 | 31.6 | 3.17 | 9.97 | 12.7 | 2.85
10 | CC(=O)Nc1ccccc1-c1cnc2ccccc2n1 | – | > 100 | – | > 100 | – | > 100 | – | > 100 | – | > 100 | – | > 100 | – | > 100 | – | > 100 | – | > 100 | – | –
11 | COc1ccc2c(c1)sc1nc(-c3ccccc3)c(-c3ccc(O)c(OC)c3)n12 | > 100 | > 100 | 74.7 | > 100 | 15 | > 100 | 19.6 | > 100 | 30.9 | > 100 | 28.8 | > 100 | > 100 | > 100 | – | – | > 100 | > 100 | > 100 | 81
12 | NC(CSc1nc2ccccn2c1[N+](=O)[O-])C(=O)O (stereo not drawn) | – | > 100 | – | > 100 | – | > 100 | – | > 100 | – | > 100 | – | > 100 | – | > 100 | – | – | – | > 100 | 8.54 | –
13 | O=C(O)C[O][Sb][O]CC(=O)O | > 100 | > 100 | > 100 | > 100 | > 100 | > 100 | – | – | > 100 | > 100 | > 100 | > 100 | – | – | > 100 | > 100 | > 100 | > 100 | > 100 | > 100
14 | CC1=CC2=C(C(N)=O)C(=O)OC2(C)C(c2ccccc2)C1 (stereo not drawn) | – | > 100 | – | > 100 | – | > 100 | – | > 100 | – | > 100 | – | > 100 | – | > 100 | – | – | – | > 100 | > 100 | –
15 | N#Cc1cccc(/C=C(/C(=O)c2ccccc2)c2ccccc2)c1 | 4.27 | 25.3 | – | – | 2.35 | 6.95 | 5.53 | 20.8 | 6.73 | 23.8 | 4.3 | 17.2 | 4.05 | 18.2 | 2.56 | 12.8 | 5.75 | 19.9 | 19 | 5.31
16 | COc1cc(/C=C/c2ccc(OC(C)=O)cc2)cc(OC)c1OC | – | > 100 | – | > 100 | – | 81.9 | – | – | – | > 100 | – | > 100 | – | > 100 | – | > 100 | – | > 100 | 56.1 | –
17 | C/C1=C\C/C=C(\C)[C@H]2CC(CC/C(C)=C/CC1)[C@@](C)(CO)O2 | 16 | 56.5 | > 100 | > 100 | 23.3 | > 100 | > 100 | > 100 | > 100 | > 100 | 80.6 | > 100 | > 100 | > 100 | 72.8 | > 100 | – | – | 89.9 | 21.7
18 | CC(=O)OC1C/C(C)=C/CCC(C)/C=C/C2(C)CCC(C(C)(C)O)C12 (stereo not drawn) | – | > 100 | – | > 100 | – | – | – | > 100 | – | > 100 | – | > 100 | – | > 100 | – | > 100 | – | > 100 | > 100 | –
